According to US20100048564A1, “FUSED BICYCLIC HETEROARYL DERIVATIVE” (DAIICHI SANKYO COMPANY, LIMITED, priority 2007, published 2010):

Tested on: not given
Experiment: not given
Details: not given

melting point [°C]	Structure (SMILES)
195 to 208	COC(=O)c1cccc(OCc2nc3ccc(Oc4cccnc4)cc3n2C)c1.Cl.Cl
218 to 222	Cl.Cn1c(COc2cccc(C(=O)O)c2)nc2ccc(Oc3cccc(Cl)c3)cc21 [Example 31, 3-[6-(3-Chlorophenoxy)-1-methyl-1H-benzimidazol-2-ylmethoxy]benzoic acid hydrochloride]
221 to 227	Cn1c(COc2cccc(C(=O)O)c2)nc2ccc(Oc3cccc(OC(F)(F)F)c3)cc21 [Example 33, 3-({1-Methyl-6-[3-(trifluoromethoxy)phenoxy]-1H-benzimidazol-2-yl}methoxy]benzoic acid]
209 to 213	Cn1c(COc2cccc(C(=O)O)c2)nc2ccc(Oc3cc(F)cc(Cl)c3)cc21 [Example 38, 3-{[6-(3-Chloro-5-fluorophenoxy)-1-methyl-1H-benzimidazol-2-yl]methoxy}benzoic acid]
224 to 226	Cc1cc(F)cc(Oc2ccc3nc(COc4cccc(C(=O)O)c4)n(C)c3c2)c1 [Example 40, 3-{[6-(3-Fluoro-5-methylphenoxy)-1-methyl-1H-benzimidazol-2-yl]methoxy}benzoic acid]
204 to 208	CCc1cccc(Oc2ccc3nc(COc4cccc(C(=O)O)c4)n(C)c3c2)c1 [Example 42, 3-{[6-(3-Ethylphenoxy)-1-methyl-1H-benzimidazol-2-yl]methoxy}benzoic acid]

Tested on: KK mice
Experiment: Hypoglycemic effect in diabetic KK mice (Test Example 1)
Format: in vivo
Details: Mus musculus, po, 72 h; male KK mice, diet admixture containing 0.03% of the compound, 3 days, plasma glucose vs control group; read-out: Hypoglycemic rate (%)
Text: Six-week-old male KK mice were purchased from CLEA Japan, Inc. and then were fed until 15 to 20 weeks old to develop diabetes. The mice were individually fed during the adaptation period and the test period, and water and feed (FR2, Funabashi Farm) were freely ingested.
At the start of the experiment, after body weight measurement, blood was collected from the tail vein of the mice into a heparin-coated glass tube and centrifuged, and then plasma was separated. The glucose level in the plasma was measured by Glucoloader GXT (A&T Corp.), and individuals having a plasma glucose level of about 350 mg/dl or more were selected. The mice were grouped, each group having 3 to 4 mice, to make the average body weight and the average plasma glucose level similar. Each compound was administered to a compound group with a diet admixture containing 0.03% of the compound. A separate group in which the mice were fed only with diet was a control group.
The experiment period (drug administration period) was three days. The grouping day was the 0th day. On the 3rd day, the body weight was measured and blood was collected from the tail vein to measure the plasma glucose level.
The hypoglycemic rate was determined by the following formula.
Hypoglycemic rate=[(Control group blood glucose level−Compound-administered group blood glucose level)/Control group blood glucose level]×100

Structure (SMILES)	inhibition in vivo at 0.03 % in diet [%]
Cn1c(COc2cccc(C(=O)O)c2)nc2ccc(Oc3ccccc3F)cc21 [Example 28, 3-{[6-(2-Fluorophenoxy)-1-methyl-1H-benzimidazol-2-yl]methoxy}benzoic acid]	61
COc1cccc(Oc2ccc3nc(COc4cccc(C(=O)O)c4)n(C)c3c2)c1 [Example 29, 3-{[6-(3-Methoxyphenoxy)-1-methyl-1H-benzimidazol-2-yl]methoxy}benzoic acid]	60
Cl.Cn1c(COc2cccc(C(=O)O)c2)nc2ccc(Oc3cccc(Cl)c3)cc21 [Example 31, 3-[6-(3-Chlorophenoxy)-1-methyl-1H-benzimidazol-2-ylmethoxy]benzoic acid hydrochloride]	47
Cn1c(COc2cccc(C(=O)O)c2)nc2ccc(Oc3cccc(OC(F)(F)F)c3)cc21 [Example 33, 3-({1-Methyl-6-[3-(trifluoromethoxy)phenoxy]-1H-benzimidazol-2-yl}methoxy]benzoic acid]	42
Cn1c(COc2cccc(C(=O)O)c2)nc2ccc(Oc3cc(F)ccc3F)cc21 [Example 41, 3-{[6-(2,5-Difluorophenoxy)-1-methyl-1H-benzimidazol-2-yl]methoxy}benzoic acid]	51
CCc1cccc(Oc2ccc3nc(COc4cccc(C(=O)O)c4)n(C)c3c2)c1 [Example 42, 3-{[6-(3-Ethylphenoxy)-1-methyl-1H-benzimidazol-2-yl]methoxy}benzoic acid]	29
Cc1ccc(Oc2ccc3nc(COc4cccc(C(=O)O)c4)n(C)c3c2)cc1 [Example 49, 3-{[1-Methyl-6-(4-methylphenoxy)-1H-benzimidazol-2-yl]methoxy}benzoic acid]	48
COc1cc(Oc2ccc3nc(COc4cccc(C(=O)O)c4)n(C)c3c2)ccc1C [Example 54, 3-{[6-(3-Methoxy-4-methylphenoxy)-1-methyl-1H-benzimidazol-2-yl]methoxy}benzoic acid]	32
Cc1ccc(Oc2ccc3nc(COc4cccc(C(=O)O)c4)n(C)c3c2)cc1C [Example 55, 3-{[6-(3,4-Dimethylphenoxy)-1-methyl-1H-benzimidazol-2-yl]methoxy}benzoic acid]	44
Cn1c(COc2cc(F)cc(C(=O)O)c2)nc2ccc(Oc3ccc(Cl)c(F)c3)cc21 [Example 59, 3-{[6-(4-Chloro-3-fluorophenoxy)-1-methyl-1H-benzimidazol-2-yl]methoxy}-5-fluorobenzoic acid]	47
CCC(CC)Oc1ccc2nc(COc3cccc(C(=O)O)c3)n(C)c2c1 [Example 67, 3-{[6-(1-Ethylpropoxy)-1-methyl-1H-benzimidazol-2-yl]methoxy}benzoic acid]	50
Cc1ccc(Oc2ccc3nc(COc4cccc(C(=O)O)c4)n(C)c3n2)cc1 [Example 69, 3-{[3-Methyl-5-(4-methylphenoxy)-3H-imidazo[4,5-b]pyridin-2-yl]methoxy}benzoic acid]	43
Cc1ccc(Oc2ccc3nc(COc4cccc(C(=O)O)c4)n(C)c3n2)cc1C [Example 70, 3-{[5-(3,4-Dimethylphenoxy)-3-methyl-3H-imidazo[4,5-b]pyridin-2-yl]methoxy}benzoic acid]	38
Cc1ccc(Oc2ccc3nc(COc4cc(F)cc(C(=O)O)c4)n(C)c3n2)cc1 [Example 72, 3-Fluoro-5-{[3-methyl-5-(4-methylphenoxy)-3H-imidazo[4,5-b]pyridin-2-yl]methoxy}benzoic acid]	42
